Laboratory results from paper PMC10350920, “Development of a 2,4-Diaminothiazole Series for the Treatment of Human African Trypanosomiasis Highlights the Importance of Static–Cidal Screening of Analogues” (Journal of Medicinal Chemistry, 2023).

How the values were obtained:
[1] = Human microsomal intrinsic clearance; assay type: in vitro ADME; details: second value of mouse/human cell
Pharmacokinetics in rats = assay type: in vivo, Sprague Dawley rats
Method: To determine compound exposure, compounds were dosed by gavage (16, 38) at 10 mg kg^–1 free base (16, 38), dose volume; and 5 mL kg^–1 (16, 38), dose vehicle (10% DMSO/40% PEG400/50% Milli-Q) to female NMRI mice, n = 3/dose level (16), or Sprague Dawley rats (38). Blood samples were taken from each mouse/rat at 5, 15, and 30 min, 1, 2, 4, 6, and 8 h postdose and mixed with two volumes of distilled water. After suitable sample preparation, the concentration of the test compound in blood was determined by UPLC–MS/MS using a Quattro Premier XE (Waters, USA). Pharmacokinetic parameters were derived from the mean blood concentration–time curve using PKsolutions software v 2.0 (Summit Research Services, USA).

T. b. brucei S427 = experiment: Stage 1 efficacy study in rats; assay type: in vivo, male SD rats; details: infected rats, single dose, 100 mg kg^–1 PO
Method: Stage 1 efficacy experiments using T. b. brucei S427 were performed as described,[44] with minor modifications. In brief, male SD rats (38) or female HRN (16) and NMRI (16, 38) mice (3–5 per group) were injected intraperitoneally with 1 × 10^4 BSFs of T. brucei. These BSFs come from a stock of cryopreserved stabilates containing 10% glycerol. The stabilate was suspended in 20 mM Hanks’ balanced salt solution with glucose to obtain a trypanosome concentration of 5 × 10^4 cells mL^–1. Each mouse was injected with 0.2 mL. […] Dose concentrations were 1.25, 2.5, 5, 7.5, 10, 30, and 50 mg kg^–1 free base (16) or 100 mg kg^–1 free base (38). The doses were prepared fresh daily, using 5% DMSO/40% PEG400/55% Milli-Q (16) or 15% solutol/85% Milli-Q (38), and the dose volume was 10 mL kg^–1. One group of three mice was an untreated control group.

[2] = Kinetic aqueous solubility (laser nephelometry); assay type: physicochemical; details: Milli-Q water with 2.5% DMSO
Method: The kinetic aqueous solubility of the test compounds was measured using laser nephelometry. Compounds were subject to serial dilution from 10 to 0.5 mM in DMSO. An aliquot was then mixed with Milli-Q water to obtain an aqueous dilution plate with a final concentration range of 13–250 μM, with a final DMSO concentration of 2.5%. Triplicate aliquots were transferred to a flat-bottomed polystyrene plate which was immediately read on the NEPHELOstar (BMG Lab Technologies). The amount of laser scatter caused by insoluble particulates (relative nephelometry units, RNUs) was plotted against compound concentration using a segmental regression fit, with the point of inflection being quoted as the compound’s aqueous solubility (μM).

T. brucei RES II = experiment: Drug sensitivity, compound 38-resistant clone RES II; assay type: cell-based, T. b. brucei
Method: Drug sensitivity assays were carried out with BSF T. b. brucei “single marker” S427 or BSF T. b. brucei, Lister 427, MiTat 1.2, clone 221a 2T1 cells,[45] cells grown at 37 °C with 5% CO2 in an HMI-9T medium[46] as previously described.[47] 2T1 cells were initially maintained with 1 μg mL^–1 puromycin and 1 μg mL^–1 phleomycin prior to transfection or 2.5 μg mL^–1 hygromycin and 1 μg mL^–1 phleomycin after transfection. Induction of overexpression was achieved by the addition of 1 μg mL^–1 tetracycline to the culture medium.
Compound-resistant cell lines were generated by subculturing a clone of T. brucei in the continuous presence of 38. Starting at sublethal concentrations, drug concentrations in two independent cultures were increased in a stepwise manner, usually 2-fold. When parasites were able to survive and grow in concentrations of drugs equivalent to more than 10 times the established EC50 value, the resulting cell lines were cloned by limiting dilution in the presence of the compound. Two clones (RES I-II) were selected for further biological study. A standard alkaline lysis protocol was used to isolate genomic DNA from compound-resistant bloodstream T. brucei parasites (∼1 × 10^8). Whole genome sequencing was performed using a DNB-seq next-generation sequencing platform (BGI, Hong Kong). Sequencing reads (150 bp) were aligned to the T. brucei TREU927 genome (v39; tritrypDB) using Bowtie2[48] and Samtools[49] software. […] Samtools and BCFtools[52] (mpileup) were used to call SNP and indels compared with the wild-type starter clone, where the overall quality score (QUAL) was >100. Artemis[50] was used to analyze chromosome and gene copy number variation, as well as visualization of SNPs.

[3] = Equilibrium dialysis, free fraction in plasma; assay type: in vitro ADME, mouse; details: matrix not given
Method: In brief, a 96-well equilibrium dialysis apparatus was used to determine the free fraction in plasma and the brain (HT Dialysis LLC, Gales Ferry, CT). Isotonic buffer was prepared using 8.69 g of Na2HPO4, 1.9 g of KH2PO4, and 4.11 g of NaCl dissolved in 1 L of Milli-Q water, and the pH was adjusted to 7.4. Artificial CSF was prepared using 3.652 g of NaCl, 93.2 mg of KCl, 119.96 mg of MgCl2, 92.61 mg of CaCl2, and 268 mg of Na2HPO4 heptahydrate dissolved in 0.5 L of water, and the pH was adjusted to 7.4. Membranes [12–14 (plasma) or 6–9 (brain) kDA cutoff] were conditioned in deionized water for 60 min, followed by conditioning in 80:20 deionized water/ethanol for 20 min, and then rinsed in isotonic buffer (plasma) or […] (brain) before use. Female CD1 mouse plasma was defrosted and centrifuged for 10 min at 3000 rpm (Allegra X12-R, Beckman Coulter, USA). The control mouse brain was homogenized in two volumes of artificial CSF in a Covaris S2 acoustic homogenizer. Plasma or brain homogenate was spiked with the test compound (10 μg mL^–1), and 150 μL aliquots (n = 3 replicate determinations) were loaded into the 96-well equilibrium dialysis plate. Dialysis versus 150 μL of isotonic buffer (plasma) or artificial CSF (brain) was carried out for 5 h in a temperature-controlled incubator at 37 °C (Barworld Scientific Ltd, UK) using an orbital microplate shaker at 125 rpm (Barworld Scientific Ltd, UK). At the end of the incubation period, aliquots of plasma/homogenized brain or buffer were transferred to a clean 96-well plate, and the composition in each well was balanced with control fluid, such that the volume of buffer to the matrix was the same. Sample extraction was performed by the addition of 400 μL of acetonitrile containing an appropriate internal standard. Samples were allowed to mix for 1 min and then centrifuged at 3000 rpm in 96-well blocks for 10 min (Allegra X12-R, Beckman Coulter, USA). All samples were analyzed by means of UPLC/MS/MS on a Quattro Premier XE or Micro TQs mass spectrometer (Waters Corporation, USA). The unbound fraction was determined as the ratio of the peak area in the buffer to that in the matrix.

[4] = male, Sprague Dawley, whole blood, rat, PO, 10 mg kg^–1

CC(C)(O)CC(=O)c1sc(Nc2ccc(F)c(F)c2)nc1N [Compound 38, 1-(4-Amino-2-((3,4-difluorophenyl)amino)thiazol-5-yl)-3-hydroxy-3-methylbutan-1-one]
CLint (human) [1]: < 0.5 mL·min/g
free blood Cmax (Pharmacokinetics in rats; male SD rats, 10 mg kg^–1 PO): 195 ng mL^–1
AUC (Pharmacokinetics in rats; [4]): 7830 ng·h/mL
Cmax (Pharmacokinetics in rats; [4]): 1400 ng/mL
Tmax (Pharmacokinetics in rats; [4]): 4 h
stage 1 efficacy, parasitemia (T. b. brucei S427): no reduction in parasitemia
solubility [2]: > 100 µg/mL
EC50 (T. brucei RES II; Trypanosoma brucei, read-out: EC50, RES II): 8.2 ± 0.49 µM
fold resistance, RES II (T. brucei RES II; relative to the parental wild-type, in brackets): 26

(4-Amino-2-(cyclohexylamino)thiazol-5-yl)(2,6-difluorophenyl)methanone [Compound 16]
Fu (free fraction) [3]: 0.03
